{"source": "patent US10786475B2", "about": "“Method for preventing, treating, or improving fatty liver by administering effective amounts of azelaic acid to a subject” (Korea University Research and Business Foundation, priority 2018, dated 2020)", "system": "Olfr544", "assay": "p-CREB/CREB western blotting in Hepa1c1c-7 cells, normal and Olfr544 knockdown", "format": "cell-based, mouse", "from_the_text": "To more clearly confirm whether an AzA acts as an Olfr544 ligand, an Olfr544 knockdown cell line was constructed using a vector including shRNA, and protein expression levels of normal cells and knockdown cells were compared by performing an experiment as follows. To construct an Olfr544 knockdown cell line, particularly, an oligonucleotide (top strand [SEQ ID NO: 1]: 5′-[…]-ACAGTGAG-3′) encoding an Olfr544-targeted shRNA hairpin sequence or an oligonucleotide (top strand [SEQ ID NO: 2]: 5′-[…]-3′) encoding non-targeting scrambled shRNA hairpins were inserted into an shRNA cloning site of a pENTR/U6 vector using a BLOCK-iT U6 RNAi entry vector kit (Invitrogen). Subsequently, Hepa1c1c-7 or 3T3-L1 cells were seeded on a 6-well plate and transfected with 2.5 μg of Olfr544 shRNA or scrambled shRNA using 10 μL Lipofectamine 2000 (Invitrogen) for 48 hours, thereby constructing an Olfr544 knockdown cell line. […]\nTo confirm whether an Olfr544 protein was expressed, protein fractions (cell membrane protein, cytosol protein) and total proteins (whole protein extract), which were extracted by the method of Example 2-3, were quantified by a Bradford method. […] The expression level of each gene was standardized using β-actin or GAPDH expression, and the comparison of the contents of protein bands of western blots was quantified and digitized using software (Gel-Pro Analyzer 4.0). […]", "data": [{"smiles": "O=C(O)CCCCCCCC(=O)O", "note": "[AzA, nonanedioic acid]", "values": [{"measurement": "increase in p-CREB/CREB ratio", "setting": "Hepa1c1c-7 cells with Olfr544 knockdown by shRNA transfection", "value": "not observed"}, {"measurement": "p-CREB/CREB ratio", "setting": "Hepa1c1c-7 cells, AzA-treated group", "value": "significantly increased"}]}]}
